Measured values reported in PubChem BioAssay (NCI).
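96-well plates; 48 h exposure; 5 concentrations. Endpoints by linear interpolation between flanking doses. Not reached: highest tested concentration assigned. GI50 is the concentration that inhibits growth by half. The concentration for full growth arrest is given as TGI.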

Experiments:
Assay in all cases: DTP human tumour cell line panel, 48 h
IGROV1 ovarian = system: IGROV1 ovarian
CCRF-CEM leukemia = system: CCRF-CEM leukemia
A549 NSCLC = system: A549 NSCLC
SN12C renal = system: SN12C renal
OVCAR-3 ovarian = system: OVCAR-3 ovarian
NCI-H522 lung = system: NCI-H522 lung
DMS 273 small cell lung = system: DMS 273 small cell lung
M19-MEL melanoma = system: M19-MEL melanoma
HCC-2998 colon = system: HCC-2998 colon
PC-3 prostate = system: PC-3 prostate

`CCc1ccc(Nc2cc(=O)[nH]c(=S)n2C)cc1` gave a TGI (IGROV1 ovarian) greater than 100 µM, a TGI (CCRF-CEM leukemia) greater than 100 µM and a TGI (A549 NSCLC) greater than 100 µM. It also gave a TGI (SN12C renal) greater than 100 µM, a TGI (OVCAR-3 ovarian) greater than 100 µM and a TGI (NCI-H522 lung) greater than 100 µM. For the same compound, the TGI (DMS 273 small cell lung) was greater than 100 µM and the TGI (M19-MEL melanoma) was greater than 100 µM.
With `CN(C)CC/C(=N\Nc1ccc(Cl)c(Cl)c1)c1ccccc1` the TGI (IGROV1 ovarian) was 5.68 µM, the TGI (CCRF-CEM leukemia) was 6.18 µM and the TGI (A549 NSCLC) was 3.8 µM. For the same compound, the TGI (SN12C renal) was 5.26 µM, the TGI (OVCAR-3 ovarian) was 6.45 µM and the TGI (NCI-H522 lung) was 4.28 µM. For the same compound, the TGI (DMS 273 small cell lung) was 3.23 µM and the TGI (M19-MEL melanoma) was 3.51 µM.
In the case of `CCC[CH2][Sn]([CH2]CCC)([O]C(=O)c1cc(OC)c(OC)cc1OC)[O]C(=O)c1cc(OC)c(OC)cc1OC`, the GI50 (IGROV1 ovarian) is reported as 1.43 µM, the TGI (IGROV1 ovarian) is reported as 2.96 µM and the GI50 (CCRF-CEM leukemia) is reported as 0.295 µM. For the same compound, the TGI (CCRF-CEM leukemia) was 1.11 µM, the GI50 (A549 NSCLC) was 5.14 µM and the TGI (A549 NSCLC) was 18.3 µM. The GI50 (SN12C renal) was 1.52 µM, the TGI (SN12C renal) was 3.29 µM and the GI50 (OVCAR-3 ovarian) was 1.3 µM. The TGI (OVCAR-3 ovarian) was 2.86 µM, the GI50 (NCI-H522 lung) was 0.373 µM and the TGI (NCI-H522 lung) was 1.14 µM. For the same compound, the GI50 (DMS 273 small cell lung) was 1.55 µM, the TGI (DMS 273 small cell lung) was 3.37 µM and the GI50 (M19-MEL melanoma) was 1.03 µM. For the same compound, the TGI (M19-MEL melanoma) was 2.36 µM.
`Cc1ccccc1NC(=O)C1C(=O)N(c2ccccc2C)C(=O)/C1=N\N` (centres undefined) was tested, and the TGI (IGROV1 ovarian) was greater than 100 µM, the TGI (CCRF-CEM leukemia) was greater than 100 µM and the TGI (A549 NSCLC) was greater than 100 µM. The TGI (HCC-2998 colon) was greater than 100 µM, the TGI (SN12C renal) was greater than 100 µM and the TGI (OVCAR-3 ovarian) was greater than 100 µM. It also gave a TGI (NCI-H522 lung) greater than 100 µM and a TGI (M19-MEL melanoma) greater than 100 µM.
With `CC1=C(C(=O)CC(=O)C(=O)Nc2ccccc2)Sc2ccccc2N1` the TGI (IGROV1 ovarian) was greater than 100 µM, the TGI (CCRF-CEM leukemia) was greater than 100 µM and the TGI (A549 NSCLC) was greater than 100 µM. For the same compound, the TGI (SN12C renal) was greater than 100 µM, the TGI (OVCAR-3 ovarian) was greater than 100 µM and the TGI (NCI-H522 lung) was greater than 100 µM. The TGI (M19-MEL melanoma) was greater than 100 µM.
`N#CCN1CCOCCOCCN(CC#N)CCOCCOCC1` gave a TGI (IGROV1 ovarian) greater than 100 µM, a TGI (CCRF-CEM leukemia) greater than 100 µM and a TGI (A549 NSCLC) greater than 100 µM. It also gave a TGI (HCC-2998 colon) greater than 100 µM, a TGI (SN12C renal) greater than 100 µM and a TGI (OVCAR-3 ovarian) greater than 100 µM. For the same compound, the TGI (M19-MEL melanoma) was greater than 100 µM.
Compound `CC(=O)C1C(=O)C(=O)N(c2ccccc2N2C(=O)C(=O)C(C(C)=O)C2=O)C1=O` (centres undefined) has a TGI (IGROV1 ovarian) greater than 100 µM, a TGI (CCRF-CEM leukemia) greater than 100 µM and a TGI (A549 NSCLC) greater than 100 µM. The TGI (HCC-2998 colon) was greater than 100 µM, the TGI (SN12C renal) was greater than 100 µM and the TGI (OVCAR-3 ovarian) was greater than 100 µM. For the same compound, the TGI (NCI-H522 lung) was greater than 100 µM and the TGI (M19-MEL melanoma) was greater than 100 µM.
Compound `CC[C@H](C)[C@H](NC(=O)Nc1ccccc1)C(=O)N(C)[C@H](C[C@@H](OC(C)=O)c1nc(C(=O)N[C@@H](Cc2ccccc2)C[C@H](C)C(=O)OC)cs1)C(C)C` has a GI50 (IGROV1 ovarian) of 3.28 µM, a TGI (IGROV1 ovarian) greater than 100 µM and a GI50 (CCRF-CEM leukemia) of 2.25 µM. The TGI (CCRF-CEM leukemia) was greater than 100 µM, the GI50 (PC-3 prostate) was 3.47 µM and the TGI (PC-3 prostate) was greater than 100 µM. The GI50 (A549 NSCLC) was 7.49 µM, the TGI (A549 NSCLC) was greater than 100 µM and the GI50 (HCC-2998 colon) was 3.48 µM. It also gave a TGI (HCC-2998 colon) greater than 100 µM, a GI50 (SN12C renal) of 8.31 µM and a TGI (SN12C renal) greater than 100 µM. The GI50 (OVCAR-3 ovarian) was 2.32 µM, the TGI (OVCAR-3 ovarian) was 5.96 µM and the GI50 (NCI-H522 lung) was 1.5 µM. The TGI (NCI-H522 lung) was 21.1 µM.
Work on `C[C@]12CCC3c4ccc(O)cc4CCC3C1Cc1ccc(O)cc12` (some centres undefined) yielded a GI50 (IGROV1 ovarian) of 9.72 µM, a TGI (IGROV1 ovarian) of 26.1 µM and a GI50 (CCRF-CEM leukemia) of 4.14 µM. For the same compound, the TGI (CCRF-CEM leukemia) was 17.2 µM, the GI50 (PC-3 prostate) was 7.25 µM and the TGI (PC-3 prostate) was 22.4 µM. It also gave a GI50 (A549 NSCLC) of 13 µM, a TGI (A549 NSCLC) of 38.4 µM and a GI50 (HCC-2998 colon) of 5.44 µM. It also gave a TGI (HCC-2998 colon) of 18.4 µM, a GI50 (SN12C renal) of 11.8 µM and a TGI (SN12C renal) of 25.8 µM. The GI50 (OVCAR-3 ovarian) was 5.71 µM, the TGI (OVCAR-3 ovarian) was 26.5 µM and the GI50 (NCI-H522 lung) was 3.5 µM. The TGI (NCI-H522 lung) was 12.8 µM.
In the case of `CCN(CC)CCCOc1cc(O)c2c(=O)cc(-c3ccccc3)oc2c1`, the GI50 (IGROV1 ovarian) is reported as 6.17 µM, the TGI (IGROV1 ovarian) is reported as 22.1 µM and the GI50 (CCRF-CEM leukemia) is reported as 10.4 µM. The TGI (CCRF-CEM leukemia) was 26.8 µM, the GI50 (PC-3 prostate) was 10.8 µM and the TGI (PC-3 prostate) was 25.3 µM. It also gave a GI50 (A549 NSCLC) of 5.53 µM, a TGI (A549 NSCLC) of 22.5 µM and a GI50 (HCC-2998 colon) of 10.1 µM. The TGI (HCC-2998 colon) was 24.4 µM, the GI50 (SN12C renal) was 10.1 µM and the TGI (SN12C renal) was 22.8 µM. For the same compound, the GI50 (OVCAR-3 ovarian) was 15.5 µM, the TGI (OVCAR-3 ovarian) was 34.1 µM and the GI50 (NCI-H522 lung) was 12.1 µM. For the same compound, the TGI (NCI-H522 lung) was 26.7 µM.
`COc1cc(/C=C/c2ccc(OC(C)=O)cc2)cc(OC)c1OC` was tested, and the TGI (IGROV1 ovarian) was greater than 100 µM, the TGI (CCRF-CEM leukemia) was greater than 100 µM and the TGI (A549 NSCLC) was 85.2 µM. The TGI (SN12C renal) was greater than 100 µM, the TGI (OVCAR-3 ovarian) was 68.2 µM and the TGI (NCI-H522 lung) was 81.9 µM. It also gave a TGI (DMS 273 small cell lung) greater than 100 µM and a TGI (M19-MEL melanoma) greater than 100 µM.
With `CC(=O)Nc1ccccc1-c1cnc2ccccc2n1` the TGI (IGROV1 ovarian) was greater than 100 µM, the TGI (CCRF-CEM leukemia) was greater than 100 µM and the TGI (A549 NSCLC) was greater than 100 µM. The TGI (HCC-2998 colon) was greater than 100 µM, the TGI (SN12C renal) was greater than 100 µM and the TGI (OVCAR-3 ovarian) was greater than 100 µM. The TGI (NCI-H522 lung) was greater than 100 µM and the TGI (M19-MEL melanoma) was greater than 100 µM.
`COc1ccc(/C=C/C(=O)c2ccc3cc(OC)c(OC)cc3c2)cc1OC` gave a GI50 (IGROV1 ovarian) of 4.72 µM, a TGI (IGROV1 ovarian) of 63.4 µM and a GI50 (CCRF-CEM leukemia) of 3.03 µM. The TGI (CCRF-CEM leukemia) was 31.6 µM, the GI50 (PC-3 prostate) was 3.08 µM and the TGI (PC-3 prostate) was 13.3 µM. It also gave a GI50 (A549 NSCLC) of 2.59 µM, a TGI (A549 NSCLC) of 10.6 µM and a GI50 (HCC-2998 colon) of 3.92 µM. It also gave a TGI (HCC-2998 colon) of 13.9 µM, a GI50 (SN12C renal) of 3.41 µM and a TGI (SN12C renal) of 31.2 µM. The GI50 (OVCAR-3 ovarian) was 3.2 µM, the TGI (OVCAR-3 ovarian) was 13.5 µM and the GI50 (NCI-H522 lung) was 2.48 µM. For the same compound, the TGI (NCI-H522 lung) was 7.99 µM.
In the case of `COC(=O)c1ccc2c(c1)C(=O)c1c-2n(CCCN)c(=O)c2cc([N+](=O)[O-])ccc12`, the GI50 (IGROV1 ovarian) is reported as less than 0.0156 µM, the TGI (IGROV1 ovarian) is reported as 0.352 µM and the GI50 (CCRF-CEM leukemia) is reported as less than 0.01 µM. For the same compound, the TGI (CCRF-CEM leukemia) was 0.0759 µM, the GI50 (PC-3 prostate) was less than 0.0373 µM and the TGI (PC-3 prostate) was 1.49 µM. For the same compound, the GI50 (A549 NSCLC) was less than 0.03 µM, the TGI (A549 NSCLC) was 0.894 µM and the GI50 (HCC-2998 colon) was less than 0.01 µM. For the same compound, the TGI (HCC-2998 colon) was 0.058 µM, the GI50 (SN12C renal) was less than 0.0233 µM and the TGI (SN12C renal) was 1.36 µM. It also gave a GI50 (OVCAR-3 ovarian) of 0.242 µM, a TGI (OVCAR-3 ovarian) of 1.55 µM and a GI50 (NCI-H522 lung) of less than 0.0306 µM. The TGI (NCI-H522 lung) was 0.588 µM.
For `COc1cc(Cn2ccc3c2-c2oncc2CC3)cc(OC)c1`, the GI50 (IGROV1 ovarian) was 7.44 µM, the TGI (IGROV1 ovarian) was greater than 100 µM and the GI50 (CCRF-CEM leukemia) was 3.74 µM. The TGI (CCRF-CEM leukemia) was greater than 100 µM, the GI50 (PC-3 prostate) was 11 µM and the TGI (PC-3 prostate) was greater than 100 µM. The GI50 (A549 NSCLC) was 5.23 µM, the TGI (A549 NSCLC) was greater than 100 µM and the GI50 (HCC-2998 colon) was 7.13 µM. The TGI (HCC-2998 colon) was 90.1 µM, the GI50 (SN12C renal) was 6.99 µM and the TGI (SN12C renal) was greater than 100 µM. The GI50 (OVCAR-3 ovarian) was 2.99 µM, the TGI (OVCAR-3 ovarian) was 9.79 µM and the GI50 (NCI-H522 lung) was 3.57 µM. For the same compound, the TGI (NCI-H522 lung) was 40.4 µM.
